What was measured:
[1] = PAMPA-BBB permeation assay; assay type: in vitro ADME, porcine; settings: pig, PBS/EtOH (70:30), mean ± SD, read-out: Permeability Pe
Method: In vitro Blood-Brain Barrier Permeation Assay
To evaluate the brain penetration of the different compounds, a parallel artificial membrane permeation assay for blood-brain barrier was used, following the method described by Di et al.1 The in vitro permeability (Pe) of fourteen commercial drugs (see Table S1) through lipid extract of porcine brain membrane together with the test compounds were determined. Commercial drugs and assayed compounds were tested using a mixture of PBS:ETOH (70:30). Assay validation was made by comparing the experimental permeability with the reported values of the commercial drugs by bibliography and lineal correlation between experimental and reported permeability of the fourteen commercial drugs using the parallel artificial membrane permeation […]
From this equation and taking into account the limits established by Di et al. for BBB permeation, we established the ranges of permeability […]
predictive penetration in the CNS used as references.
1 Di, L.; Kerns, E. H.; Fan, K.; McConnell, O. J.; and Carter, G. T. High throughput artificial membrane permeability assay for blood-brain barrier.

[2] = biological target: α2-adrenergic receptor (α2-AR); assay: Competition binding against [3H]RX821002, membranes from post-mortem human frontal cortex
Description: (§1) The inhibition constant (Ki) for each compound was obtained and is expressed as the corresponding pKi. The selectivity for these two receptors was expressed by the I2/α2 index, calculated as the antilogarithm of the […] between pKi values for I2-IR and pKi values for α2-AR.
(§2) Preparation of cellular membranes.
(§3) Human brain samples were obtained at autopsy in the Basque Institute of Legal Medicine, Bilbao, Spain. Samples from the prefrontal cortex (Brodmann’s area 9) were dissected at the time of autopsy and immediately stored at -70 °C until assay. The study was developed in compliance with policies of research and ethical review boards for postmortem brain studies.
(§4) To obtain cellular membranes (P2 fraction) the different samples were homogenized using an ultraturrax in 10 volumes of homogenization buffer (0.25 M sucrose, 5 mM Tris–HCl, pH 7.4).
(§5) The crude homogenate was centrifuged for 5 min at 1000 g (4 °C) and the supernatant was centrifuged again for 10 min at 40,000 g (4 °C). The resultant pellet was washed twice in 5 volumes of homogenization buffer and recentrifuged in similar conditions. Protein content was measured according to the method of Bradford using BSA as standard.
(§6) Competition Binding Assays.
(§7) The pharmacological activity of the compounds was evaluated through competition binding studies against the I2-IR selective radioligand [3H]2-BFI or the α2-adrenergic receptor selective radioligand [3H]RX821002. Specific binding was measured in 0.25 mL aliquots (50 mM Tris-HCl, pH 7.5) containing 100 µg of membranes, which were incubated in 96-well plates either with […]
(§8) Incubations were terminated by separating free ligand from bound ligand by rapid filtration […]
(§9) counted for radioactivity by liquid scintillation spectrometry using a MicroBeta TriLux counter (PerkinElmer). Specific binding was determined and plotted as a function of the compound concentration. Nonspecific binding was determined in the presence of idazoxan (10–5 M), a compound with well stablished affinity for I2-IR and α2-adrenergic receptors, in [3H]2-BFI and [3H]RX821002 assays. To obtain the inhibition constant (Ki) analyses of competition experiments were performed by nonlinear regression using the GraphPad Prism program. Ki values were normalized to pKi values. I2-IR/α2 selectivity index was calculated as the antilogarithm of the difference between pKi values for I2-IR and pKi values for α2-ARs.

I2-IR = settings: rat cerebral cortex, 1 µM yohimbine; >50% considered significant
[3] = test system: HT-22 mouse hippocampal neuronal cell line; assay: Cytotoxicity of compounds alone, MTT assay, HT-22; assay type: cell-based; settings: HT-22, 24 h, escalating concentrations
Method: In the study of neurotoxicity associated with AD, the HT22 mouse hippocampal neuronal cell line has been recognized as an effective cell model. HT22 cells were purchased from Merck-Sigma-Aldrich (SCC12, Madrid, Spain) and cultured in DMEM-F12 (Gibco, Fisher Scientific, Madrid, Spain) supplemented with foetal bovine serum (FBS, 10%) and 1% penicillin/streptomycin under standard conditions (37 °C, 5% CO2). The human dopaminergic cell line SH-SY5Y, in turn, has been widely used as an in vitro model to study the pathogenesis of PD associated with dopaminergic degeneration. Cells, acquired from the American Type Culture Collection (ATCC, Rockville, MD, USA, Ref.CRL-2266), were grown in RPMI medium (Gibco) supplemented with glutamine (2 mM), 10% FBS, and 1% penicillin/streptomycin under standard conditions. Semiconfluent cells (90%) were seeded on 96-well plates at 3 × 10^4 per well and incubated for 24 h before treatment.
Neuronal cultures, HT-22 and SH-SY5Y, seeded on 96-well plates were treated with LSL33, LSL34, and LSL60101 for 24 h, and viability was assessed using the MTT assay. […] Then, cultures were treated for 1h with LSL33 at 2 μM and LSL34 and LSL60101 at 1 μM. This dose was chosen based on previous studies. Subsequently, HT-22 cultures were exposed to glutamate (10 mM, Merck-Sigma), while SH-SY5Y cultures received 6-hydroxydopamine (6-OHDA, 35 μM, Merck-Sigma). The cells were then incubated for a minimum of 16 h. Finally, the cellular viability and nitrite production of the cultures were assessed.
The assessment of cell viability was conducted using the 3-(4,5-dimethylthiazol-2-yl)-5-(3-carboxymethoxyphenyl)-2-(4-sulfophenyl)-2H-tetrazolium (MTT) assay, following the instructions provided by the manufacturer (Roche Diagnostic, Darmstadt, Germany). […] The absorbance of the solution was measured at 595–650 nm using a spectrophotometer. The experiments were performed at least three times, and the results were expressed as a percentage of the control. […]

[4] = biological target: imidazoline I2 receptors (I2-IR); assay: Competition binding against [3H]2-BFI, membranes from post-mortem human frontal cortex; settings: for Ki: corresponds to pKiH, read-out: Ki of the high-affinity I2 site; for [3H]-2-BFI I2 pKi (One Site): monophasic fit; for [3H]-2-BFI I2 pKi (Two Sites), high affinity (pKiH) / [3H]-2-BFI I2 pKi (Two Sites), low affinity (pKiL): two-site model; for [3H]-2-BFI I2 pKi (Two Sites), high affinity (pKiH): high-affinity site; for [3H]-2-BFI I2 pKi (Two Sites), low affinity (pKiL): low-affinity site
Description: as §1, §2, §3, §4, §5, §6, §7, §8, §9

Cl.c1ccc2sc(-c3ncc[nH]3)cc2c1 [LSL33, 2-(Benzo[b]thiophene-2-yl)-1H-imidazole hydrochloride]
Papp [1]: 8.1 ± 0.4 ×10⁻⁶ cm/s | [3H]-RX821002 α2 pKi [2]: 4.70 ± 0.12 | inhibition of [3H]idazoxan binding (I2-IR): 84% | cytotoxicity (MTT viability) [3]: None of the compounds tested were cytotoxic | Ki [4]: 0.079 nM | [3H]-2-BFI I2 pKi (One Site) [4]: 5.95 ± 0.24 | [3H]-2-BFI I2 pKi (Two Sites), high affinity (pKiH) [4]: 10.1 ± 0.57 | [3H]-2-BFI I2 pKi (Two Sites), low affinity (pKiL) [4]: 5.68 ± 0.25

Cl.c1ccc2oc(-n3ccnc3)cc2c1 [LSL34, 1-(Benzofuran-2-yl)-1H-imidazole hydrochloride]
Papp [1]: 14.1 ± 0.5 ×10⁻⁶ cm/s | inhibition of [3H]idazoxan binding (I2-IR): 53% | cytotoxicity (MTT viability) [3]: None of the compounds tested were cytotoxic | [3H]-2-BFI I2 pKi (One Site) [4]: 5.58 ± 0.31 | [3H]-2-BFI I2 pKi (Two Sites), high affinity (pKiH) [4]: 9.23 ± 0.36

c1ccc2oc(-c3ncc[nH]3)cc2c1 [LSL60101, reference compound]
Papp [1]: 13.6 ± 0.4 ×10⁻⁶ cm/s | [3H]-RX821002 α2 pKi [2]: 3.18 ± 0.17 | cytotoxicity (MTT viability) [3]: None of the compounds tested were cytotoxic | Selectivity I2/α2 ([4]; antilog (pKi I2-IR − pKi α2-AR)): 3090 | Ki [4]: 6.7 nM | [3H]-2-BFI I2 pKi (One Site) [4]: 6.67 ± 0.09 | [3H]-2-BFI I2 pKi (Two Sites), high affinity (pKiH) [4]: 8.17 ± 0.19 | [3H]-2-BFI I2 pKi (Two Sites), low affinity (pKiL) [4]: 6.02 ± 0.10
